Data from patent publication US20090163452A1, “COMPOSITIONS AND METHODS FOR LOWERING SERUM CHOLESTEROL” (priority 2007, published 2009).
One block for each compound: values may come before it.

Experiments:
[1] = system: CYP3A; details: in vitro; complex with the vitamin D receptor; CYP3A substrate midazolam; cited from earlier work
[2] = Plasma atorvastatin and metabolite concentrations/AUC (LC-MS/MS) with and without supplemental vitamin D; format: in vivo, human
Experimental: Study protocol. A prospective crossover study was performed. […] Columbus Ohio 43216). All other prescribed medications were continued unchanged throughout the study. […] The sample cone voltage and collision energy for all analytes and internal standard were set at 30 V and 20 eV, respectively. Chromatography was performed on BDS C18 column (50×4.6 mm, 5 μm particle size, Thermo Electron Corporation, Bellefonte, Pa.). […] Twenty-five percent of flow liquid was split into the mass system. […] The organic layer then transferred to another tube and evaporated by N2 gas and reconstituted with 0.2 ml 50% CH3CN containing 0.05% acetic acid and 5 mM ammonium acetate, and 20 μl was injected onto column. Lower limit of detection was 0.313 ng/ml for atorvasatin and metabolites. […] Area under the plasma concentration vs. time curve (AUC) was calculated by trapezoidal rule.

[3] = system: circulating cholesterol; experiment: Example 2: atorvastatin with 1000 IU/day vitamin D2 or D3 or placebo for 12 weeks, circulating cholesterol; format: in vivo, human; details: co-administration with atorvastatin
Experimental: The focus is on clinical populations including the elderly, frail, and minorities under steady-state conditions and with conditions reflecting “usual” clinical conditions with use of sparse sampling techniques and minimal impact on clinical care. […] About 90 participants are enrolled, with 30 receiving placebo, 30 receiving vitamin D2, and 30 receiving vitamin D3. Total vitamin D intake is analyzed (primarily driven by dairy food intake and supplements), and patients with major absorptive disorders (intestinal bypass surgery, feeding tubes requiring liquid diets, etc) are excluded. Other factors that could affect vitamin D absorption such as alcohol intake are evaluated.

[4] = system: cholesterol (total, LDL-cholesterol, and HDL-cholesterol); experiment: Serum cholesterol concentrations (enzymatic assay) in patients on atorvastatin with and without supplemental vitamin D; format: in vivo, human; details: for Cholesterol Total: serum; for Cholesterol Total / LDL-cholesterol / HDL-cholesterol: mean ± S.D.; for LDL-cholesterol: calculated LDL
Experimental: Study protocol. A prospective crossover study was performed. […] Columbus Ohio 43216). All other prescribed medications were continued unchanged throughout the study. […] Lipid concentration data. Serum samples were analyzed for cholesterol, LDL-cholesterol (calculated) and HDL-cholesterol concentrations by enzymatic assay (Quest Diagnostics, San Jose, Calif.).

[5] = system: cholesterol (total, LDL-cholesterol); experiment: Example 3: 1000 IU/day vitamin D for 12 weeks in humans not receiving atorvastatin, cholesterol; format: in vivo, human; details: one middle-aged subject
Experimental: A study is performed with 1000 IU/day of either vitamin D2 or vitamin D3 or identically packaged placebo for a period of 12 weeks. Cholesterol (total, LDL-cholesterol, HDL-cholesterol) and triglycerides are evaluated before and during supplemental vitamin D or placebo. Focus is on adult humans with or without known lipid disorders that are not receiving atorvastatin.

[6] = Serum vitamin D metabolite concentrations (LCMSMS) in patients on atorvastatin, crossover with/without supplemental vitamin D; format: in vivo, human; details: vitamin D supplementation 800 IU/day for six weeks (On-D), mean ± S.D.
Experimental: Study protocol. A prospective crossover study was performed. […] If subjects were taking vitamin D supplementation at recruitment, assigned study order was “On-D” after six week of standardized study dispensed vitamins followed by the “Off-D” study after six weeks of vitamin D discontinuation. […] All other prescribed medications were continued unchanged throughout the study.

[7] = no vitamin D supplementation (Off-D), atorvastatin
[8] = vitamin D supplementation 800 IU/day six weeks (On-D), patients on atorvastatin

Compound: C=C1/C(=C\C=C2/CCC[C@]3(C)[C@@H]([C@H](C)CCCC(C)(C)O)CC[C@@H]23)C[C@@H](O)C[C@@H]1O [1,25-(OH)2 vitamin D]
- regulation of CYP3A activity [1]: increased transcription of CYP3A protein and greater metabolism of the CYP3A substrate midazolam

Compound: CC(C)c1c(C(=O)Nc2ccccc2O)c(-c2ccccc2)c(-c2ccc(F)cc2)n1CCC(O)CC(O)CC(=O)O (centres unmarked) [2-OH, 2-hydroxyatorvastatin acid]
- ratio of hydroxy-atorvastatin acid to atorvastatin ([2]; during supplemental vitamin D): 0.74±0.36
- ratio of hydroxy-atorvastatin acid to atorvastatin ([2]; off-D): 0.81±0.32

- AUC/concentrations during vitamin D co-administration compared to the off-D study period ([2]; comparison between study periods): significantly lower
- ratio of hydroxy-atorvastatin acid to atorvastatin ([2]; during supplemental vitamin D): 0.09±0.09
- ratio of hydroxy-atorvastatin acid to atorvastatin ([2]; off-D): 0.10±0.09
Compound: CC(C)c1c(C(=O)Nc2ccc(O)cc2)c(-c2ccccc2)c(-c2ccc(F)cc2)n1CC[C@@H](O)C[C@@H](O)CC(=O)O [4-hydroxy-atorvastatin acid, 4-hydroxyatorvastatin acid]

Compound: C=C1CC[C@H](O)C/C1=C/C=C1\CCC[C@]2(C)[C@@H]([C@H](C)CCCC(C)C)CC[C@@H]12 [D3, cholecalciferol]
- circulating cholesterol compared with atorvastatin and placebo [3]: additional reduction

Compound: CC(C)c1c(C(=O)Nc2ccccc2)c(-c2ccccc2)c(-c2ccc(F)cc2)n1CC[C@@H](O)C[C@@H](O)CC(=O)O [atorvastatin]
- Cholesterol Total ([4]; no vitamin D supplementation (Off-D), atorvastatin 45±33 mg/day): 169 ± 35 mg/dL
- Cholesterol Total ([4]; no vitamin D supplementation (Off-D), atorvastatin 45±33 mg/day, listed as Atorvastatin): 169 ± 35 mg/dL
- LDL-cholesterol [4, 7]: 97 ± 28 mg/dL
- LDL-cholesterol ([4]; no vitamin D supplementation (Off-D), atorvastatin, listed as Atorvastatin): 97 ± 28 mg/dL
- HDL-cholesterol [4, 7]: 47 ± 11 mg/dL

Compound: C=C1CC[C@H](O)C/C1=C/C=C1\CCC[C@]2(C)[C@@H]([C@H](C)/C=C/[C@H](C)C(C)C)CC[C@@H]12 [vitamin D2, ergocalciferol]
- circulating cholesterol compared with atorvastatin and placebo [3]: additional reduction

Compound: vitamin D
- difference in HDL-cholesterol with vitamin D supplementation ([4]; On-D versus Off-D): No difference
- subjects with lower total cholesterol during supplemental vitamin D ([4]; On-D versus Off-D, patients on atorvastatin): thirteen of sixteen
- mean difference in LDL-cholesterol ([4]; after six weeks of vitamin D supplementation, co-administered with atorvastatin): 14.4%
- Cholesterol Total ([4]; vitamin D supplementation 800 IU/day six weeks (On-D), patients on atorvastatin 45±33 mg/day): 157 ± 37 mg/dL
- LDL-cholesterol [4, 8]: 83 ± 30 mg/dL
- HDL-cholesterol [4, 8]: 44 ± 11 mg/dL
- total cholesterol ([5]; after about 12 weeks of 1000 IU vitamin D (single and combined forms of D2 and D3), 241 before vitamin D): 201 mg/dL
- LDL-cholesterol ([5]; after about 12 weeks of 1000 IU vitamin D, 125 before vitamin D): 112 mg/dL
- LDL-cholesterol ([5]; after about 12 weeks of 1000 IU vitamin D, 144 before vitamin D): 98 mg/dL
- total cholesterol ([5]; after about 12 weeks of 1000 IU vitamin D, 238 before vitamin D): 219 mg/dL
- Vitamin D (25-OH) Total 25-hydroxy serum concentration ([6]; patients on atorvastatin): 29 ± 14 ng/mL
- Vitamin D (active) 1,25-dihydroxy serum concentration ([6]; patients on atorvastatin): 38 ± 15 pg/mL
- D3, 25-hydroxy serum concentration [6]: 20 ± 17 ng/mL
